According to ChEMBL document CHEMBL1123971, “Synthesis, platelet aggregation inhibitory activity, and in vivo antithrombotic activity of new 1,4-dihydropyridines” (J Med Chem, 1988):

Key:
[1] = test system: Felis catus; assay: Effect of intraperitoneal infusion on respiration frequency in Anesthetized cats at a dose of 200 mg/kg at 45 min; assay type: functional
[2] = test system: Felis catus; assay: Effect of intraperitoneal infusion on diastolic pressure in Anesthetized cats at a dose of 200 mg/kg at 105 min; assay type: functional
[3] = test system: Felis catus; assay: Effect on respiration frequency in Anesthetized cats at a dose of 2.25 mg/kg at 15 min; assay type: functional
[4] = test system: Felis catus; assay: Effect of intraperitoneal infusion on respiration frequency in Anesthetized cats at a dose of 200 mg/kg at 120 min; assay type: functional
[5] = test system: Felis catus; assay: Effect of intraperitoneal infusion on systolic pressure in Anesthetized cats at a dose of 200 mg/kg at 165 min; assay type: functional
[6] = test system: Felis catus; assay: Effect of intraperitoneal infusion on systolic pressure in Anesthetized cats at a dose of 200 mg/kg at 30 min; assay type: functional
[7] = test system: Felis catus; assay: Effect of intraperitoneal infusion on respiration frequency in Anesthetized cats at a dose of 200 mg/kg at 30 min; assay type: functional
[8] = test system: Felis catus; assay: Effect of intravenous infusion on diastolic pressure in Anesthetized cats at a dose of 0.30 mg/kg at 2 min; assay type: functional; conditions: dose 0.3 mg/kg
[9] = test system: Felis catus; assay: Effect of intravenous infusion on respiration frequency in Anesthetized cats at a dose of 0.15 mg/kg at 1 min; assay type: functional
[10] = test system: Felis catus; assay: Effect of intraperitoneal infusion on systolic pressure in Anesthetized cats at a dose of 200 mg/kg at 45 min; assay type: functional
[11] = test system: Felis catus; assay: Effect of intravenous infusion on cardiac frequency in Anesthetized cats at a dose of 0.30 mg/kg at 2 min; assay type: functional, Heart; conditions: dose 0.3 mg/kg
[12] = test system: Felis catus; assay: Effect of intraperitoneal infusion of compound on cardiac frequency in Anesthetized cats at a dose of 200 mg/kg at 180 mins; assay type: functional, Heart
[13] = species: Oryctolagus cuniculus; assay: Effect on 35 mM K+-induced contraction on rabbit aorta at a dose of 3*10e-6 mol/L; assay type: functional
[14] = test system: Felis catus; assay: Effect of intraperitoneal infusion of compound on cardiac frequency in Anesthetized cats at a dose of 200 mg/kg at 135 min; assay type: functional, Heart
[15] = test system: Felis catus; assay: Effect of intravenous infusion on respiration frequency in Anesthetized cats at a dose of 0.30 mg/kg at 2 min; assay type: functional; conditions: dose 0.3 mg/kg
[16] = test system: Felis catus; assay: Effect of intraperitoneal infusion of compound on cardiac frequency in Anesthetized cats at a dose of 200 mg/kg at 75 min; assay type: functional, Heart
[17] = test system: Felis catus; assay: Effect of intraperitoneal infusion of compound on cardiac frequency in Anesthetized cats at a dose of 200 mg/kg at 15 min; assay type: functional, Heart
[18] = test system: Felis catus; assay: Effect of intravenous infusion on respiration frequency in Anesthetized cats at a dose of 0 mg/kg at 0 min; assay type: functional
[19] = test system: Felis catus; assay: Effect of intraperitoneal infusion of compound on cardiac frequency in Anesthetized cats at a dose of 200 mg/kg at 30 min; assay type: functional, Heart
[20] = test system: Felis catus; assay: Effect of intravenous infusion on cardiac frequency in Anesthetized cats at a dose of 1.50 mg/kg at 10 min; assay type: functional, Heart; conditions: dose 1.5 mg/kg
[21] = test system: Felis catus; assay: Effect of intravenous infusion on systolic pressure in Anesthetized cats at a dose of 0.75 mg/kg at 5 min; assay type: functional
[22] = test system: Felis catus; assay: Effect of intraperitoneal infusion on systolic pressure in Anesthetized cats at a dose of 200 mg/kg at 60 min; assay type: functional
[23] = test system: Felis catus; assay: Effect of intraperitoneal infusion on systolic pressure in Anesthetized cats at a dose of 200 mg/kg at 105 min; assay type: functional
[24] = species: Oryctolagus cuniculus; assay: Effect on 35 mM K+-induced contraction on rabbit aorta at a dose of 10E-9 mol/L; assay type: functional
[25] = species: Oryctolagus cuniculus; assay: Effect on 35 mM K+-induced contraction on rabbit aorta at a dose of 10E-7 mol/L; assay type: functional
[26] = test system: Felis catus; assay: Effect of intraperitoneal infusion on diastolic pressure in Anesthetized cats at a dose of 200 mg/kg at 75 min; assay type: functional
[27] = test system: Felis catus; assay: Effect of intravenous infusion on systolic pressure in Anesthetized cats at a dose of 2.25 mg/kg at 15 min; assay type: functional
[28] = test system: Felis catus; assay: Effect of intraperitoneal infusion on respiration frequency in Anesthetized cats at a dose of 200 mg/kg at 105 min; assay type: functional
[29] = test system: Felis catus; assay: Effect of intraperitoneal infusion on diastolic pressure in Anesthetized cats at a dose of 200 mg/kg at 30 min; assay type: functional
[30] = test system: Felis catus; assay: Effect of intravenous infusion on respiration frequency in Anesthetized cats at a dose of 0.75 mg/kg at 5 min; assay type: functional
[31] = test system: Felis catus; assay: Effect of intravenous infusion on diastolic pressure in Anesthetized cats at a dose of 3.0 mg/kg at 20 min; assay type: functional
[32] = test system: Felis catus; assay: Effect of intraperitoneal infusion on systolic pressure in Anesthetized cats at a dose of 200 mg/kg at 75 min; assay type: functional
[33] = test system: Felis catus; assay: Effect of intraperitoneal infusion on respiration frequency in Anesthetized cats at a dose of 200 mg/kg at 135 min; assay type: functional
[34] = test system: Felis catus; assay: Effect on cardiac frequency in Anesthetized cats at a dose of 2.25 mg/kg at 15 min; assay type: functional, Heart
[35] = test system: Felis catus; assay: Effect of intraperitoneal infusion on respiration frequency in Anesthetized cats at a dose of 200 mg/kg at 75 min; assay type: functional
[36] = test system: Felis catus; assay: Effect of intraperitoneal infusion on respiration frequency in Anesthetized cats at a dose of 200 mg/kg at 165 min; assay type: functional
[37] = species: Oryctolagus cuniculus; assay: Effect on 35 mM K+-induced contraction on rabbit aorta at a dose of 10E-8 mol/L; assay type: functional
[38] = test system: Felis catus; assay: Effect of intravenous infusion on cardiac frequency in Anesthetized cats at a dose of 3 mg/kg at 20 min; assay type: functional, Heart
[39] = test system: Felis catus; assay: Effect of intraperitoneal infusion on respiration frequency in Anesthetized cats at a dose of 200 mg/kg at 150 min; assay type: functional
[40] = test system: Felis catus; assay: Effect of intravenous infusion of compound on diastolic pressure in Anesthetized cats at a dose of 3 mg/kg at 20 min; assay type: functional
[41] = test system: Felis catus; assay: Effect of intraperitoneal infusion of compound on cardiac frequency in Anesthetized cats at a dose of 200 mg/kg at 60 min; assay type: functional, Heart
[42] = species: Cavia porcellus; assay: Chronotropic activity on left and right guinea pig artia (beats/min), at 60 min; assay type: functional
[43] = test system: Felis catus; assay: Effect of intraperitoneal infusion of compound on cardiac frequency in Anesthetized cats at a dose of 200 mg/kg at 90 min; assay type: functional, Heart
[44] = test system: Felis catus; assay: Effect of intraperitoneal infusion on systolic pressure in Anesthetized cats at a dose of 200 mg/kg at 180 min; assay type: functional
[45] = test system: Felis catus; assay: Effect of intraperitoneal infusion on systolic pressure in Anesthetized cats at a dose of 200 mg/kg at 0 min; assay type: functional
[46] = test system: Felis catus; assay: Effect of intravenous infusion on diastolic pressure in Anesthetized cats at a dose of 0.75 mg/kg at 5 min; assay type: functional
[47] = species: Oryctolagus cuniculus; assay: Effect on 35 mM K+-induced contraction on rabbit aorta at a dose of 3*10e-8 mol/L; assay type: functional

CCO/C(O)=C1\C(C)=NC(C)=C(C(=O)OCCN2C(=O)c3ccccc3S2(=O)=O)C1C (stereo not drawn)
Respiratory frequency [1]: 14 r.p.m.
Arterial pressure [2]: 87 mmHg
Respiratory frequency [3]: 19 r.p.m.
Respiratory frequency [4]: 13 r.p.m.
Arterial pressure [5]: 142 mmHg
Arterial pressure [6]: 135 mmHg
Respiratory frequency [7]: 13 r.p.m.
Arterial pressure [8]: 115 mmHg
Respiratory frequency [9]: 18 r.p.m.
Arterial pressure [10]: 125 mmHg
Cardiac frequency [11]: 190 beats min-1
Cardiac frequency [12]: 276 beats min-1
Inhibition [13]: 71.3%
Cardiac frequency [14]: 271 beats min-1
Respiratory frequency [15]: 18 r.p.m.
Cardiac frequency [16]: 255 beats min-1
Cardiac frequency [17]: 254 beats min-1
Respiratory frequency [18]: 18 r.p.m.
Cardiac frequency [19]: 245 beats min-1
Cardiac frequency [20]: 210 beats min-1
Arterial pressure [21]: 162 mmHg
Arterial pressure [22]: 130 mmHg
Arterial pressure [23]: 140 mmHg
Inhibition [24]: 0%
Inhibition [25]: 12.6%
Arterial pressure [26]: 90 mmHg
Arterial pressure [27]: 162 mmHg
Respiratory frequency [28]: 12 r.p.m.
Arterial pressure [29]: 90 mmHg
Respiratory frequency [30]: 19 r.p.m.
Arterial pressure [31]: 160 mmHg
Arterial pressure [32]: 137 mmHg
Respiratory frequency [33]: 15 r.p.m.
Cardiac frequency [34]: 217 beats min-1
Respiratory frequency [35]: 12 r.p.m.
Respiratory frequency [36]: 15 r.p.m.
Inhibition [37]: 0%
Cardiac frequency [38]: 216 beats min-1
Respiratory frequency [39]: 15 r.p.m.
Arterial pressure [40]: 110 mmHg
Cardiac frequency [41]: 256 beats min-1
Beats/min [42]: 136
Control [42]: 99.3%
Cardiac frequency [43]: 256 beats min-1
Arterial pressure [44]: 145 mmHg
Arterial pressure [45]: 130 mmHg
Arterial pressure [46]: 112 mmHg
Inhibition [47]: 0%
